Source: patent US20080064725A1, “INTRATHECAL ADMINISTRATION OF TRIPTAN COMPOSITIONS TO TREAT NON-MIGRAINE PAIN” (priority 2006, published 2008)

Tests used:
[1] = test system: CD1 male mice; test: hot plate test of acute thermal pain; format: in vivo
[2] = test system: CD1 male mice; test: mechanical nociceptive thresholds with calibrated monofilaments, baseline; format: in vivo
[3] = test system: CD1 male mice; test: radiant heat to the hindpaw (Hargreaves test), baseline thresholds; format: in vivo
[4] = test system: CD1 male mice; test: carrageenan-induced thermal and mechanical hypersensitivity
[5] = test system: CD1 male mice; test: spared nerve injury (SNI) model of neuropathic pain; format: in vivo
Method: Spared nerve injury (SNI) model of neuropathic pain. A model of partial sciatic nerve injury was used in which the peroneal and sural nerves were selectively ligated and cut, sparing the tibial nerve. […] Animals were injected in a blinded cross-over manner, in which half of the animals received sumatriptan on one day and saline on the other.

[6] = test system: CD1 male mice; test: formalin test of pain behavior
[7] = test system: CD1 male mice; test: CFA-induced persistent inflammation, mechanical hyperalgesia; format: in vivo; conditions: IT 0.0006, 0.006, 0.01, 0.06 μg; days 3-7 after CFA
Method: Intrathecal sumatriptan reduces the hyperalgesic effects of persistent inflammation induced by Complete Freunds Agent (CFA). CFA injection produces a prolonged period of mechanical hyperalgesia that persists and remains stable during days 3-7 after injection into the plantar surface of the hindpaw. CD1 male mice were used. Mechanical thresholds were tested on the first day, prior to a single injection of CFA to a hindpaw (baseline). By day 3 after CFA injection animals were hyperalgesic (post CFA 3d). Animals were tested for a sumatriptan response on 4 successive days (days 3-6) after CFA. A mechanical threshold was determined on each successive day prior to the administration of intrathecal sumatriptan. Doses of sumatriptan tested are: 0.0006 μg, 0.006 μg, 0.01 μg, and 0.06 μg, all in the volume of 5 μl. Mechanical thresholds were then determined at 30 and 60 min after the injection. The average withdrawal thresholds for the CFA-treated hindpaw at […] after the administration of each dose of sumatriptan was measured. The antihyperalgesic effect of each of these doses, expressed as a percent of the pre-injection threshold for that day, were compared to the original baseline.
Persistent inflammation after CFA. […] Hindpaw swelling pre- and 72 hours postinjection was measured to confirm the effects of the injection.

[8] = test system: CD1 male mice; test: Rotarod test for sedative and sensorimotor effects; format: in vivo; conditions: SC 300, 600 μg/kg or IT 0.06, 0.60 μg; one hour after dosing
Method: To screen for sedative and other adverse sensorimotor effects, mice were tested on a Rotarod (Ugo Basile, Comerio, Italy). The time in which mice were able to balance on a rod rotating on its axis at a constant velocity of 15 rpm were measured. The total duration of each trial was 300 sec. On the day prior to the test, animals accommodated to the task with three separate training trials. […] A single trial was used for each dose and route; reported times represent % change from the baseline value for each animal ±SEM.

[9] = sumatriptan SC 300, 600 μg/kg or IT 0.06, 0.60 μg, unstimulated baseline state
[10] = intrathecal, 24 hours after carrageenan to hindpaw, dose-dependent

CN1CC[C@]23c4c5ccc(O)c4O[C@H]2[C@@H](O)C=C[C@H]3[C@H]1C5.O=S(=O)(O)O [morphine, morphine sulfate]
hot-plate test analgesic response ([1]; positive control, 10 nmol IT): robust analgesic response
mechanical pain test analgesic response ([2]; positive control, 10 nmol IT): robust analgesic response
Hargreaves test analgesic response ([3]; positive control, 10 nmol IT): robust analgesic response
analgesia in carrageenan model ([4]; IT morphine): profound analgesia, with all animals reaching the cutoff latency
analgesia in SNI model ([5]; IT morphine): profound analgesia, to cutoff latencies
formalin test, first phase pain behavior ([6]; positive control, 10 nmol IT): eliminated
formalin test, second phase pain behavior ([6]; positive control, 10 nmol IT): eliminated

CNS(=O)(=O)Cc1ccc2[nH]cc(CCN(C)C)c2c1 [sumatriptan]
hot-plate test threshold (latency) [1, 9]: no significant changes in threshold
mechanical pain threshold, calibrated monofilaments [2, 9]: no significant changes in threshold
mechanical hypersensitivity after intraplantar CFA [7]: reduced mechanical hypersensitivity
Hargreaves test (radiant heat to hindpaw) threshold [3, 9]: no significant changes in threshold
time after injection at which antinociceptive effect was significant ([4]; IT sumatriptan, carrageenan model): 30 min
behavior after carrageenan, SC drug compared with control IT saline ([4]; SC sumatriptan): did not differ
pain thresholds of unstimulated contralateral hindlimb ([4]; carrageenan model, sumatriptan): did not affect pain thresholds
thermal latencies versus baseline (analgesic effect beyond reversal of hyperalgesia) ([4]; intrathecal sumatriptan, carrageenan-treated hindpaw): latencies exceeded those at baseline
mechanical hypersensitivity after carrageenan [4, 10]: completely reversed
thermal hypersensitivity after carrageenan [4, 10]: completely reversed
mechanical hypersensitivity produced by nerve injury (SNI) ([5]; SNI 7 d, regardless of dose or route of delivery, IT 0.6 μg, 30-120 min after drug): completely without effect
nociceptive thresholds of unaffected contralateral leg ([5]; SNI model, IT sumatriptan): unaffected
sedation or sensorimotor incoordination on the Rotarod test [8]: no evidence of confounding deficits due to sedation or sensorimotor incoordination
formalin test, second phase (11-60 min) pain behavior ([6]; IT 0.006, 0.06, 0.60 μg one hour before formalin, dose-dependent): profound reduction of pain behavior
formalin test, second phase pain behavior ([6]; systemic (SC) 300, 600 μg/kg one hour before formalin): modestly reduced second phase behaviors, but only at the highest dose tested
